Reference: the NIST ThermoML archive (doi:10.1016/j.jct.2016.09.007)

Assay: xn = mol fraction of the nth substance listed
Conditions: 93.2 kPa, Liquid; for speed of sound: Frequency=3 MHz, Sing-around technique in a fixed-path interferometer; for mass density: Vibrating tube method

CCCC(=O)[O-].CCCC[NH3+] [n-butylammonium butanoate] + CCCCCO
Conditions | mass density, 293.15 K [kg/m3] | mass density, 298.15 K [kg/m3] | speed of sound, 293.15 K [m/s] | speed of sound, 298.15 K [m/s] | speed of sound, 303.15 K [m/s]
x1 = 0.0504 | 824.946 | 821.27 | 1301.5 | 1284.3 | 1267.3
x1 = 0.1004 | 834.049 | 830.391 | 1308.8 | 1291.6 | 1274.6
x1 = 0.1491 | 842.19 | 838.55 | 1315.5 | 1298.2 | 1281.2
x1 = 0.2025 | 850.502 | 846.885 | 1322.6 | 1305.3 | 1288.2
x1 = 0.2513 | 857.492 | 853.902 | 1328.8 | 1311.6 | 1294.5
x1 = 0.3007 | 864.133 | 860.568 | 1335 | 1317.8 | 1300.7
x1 = 0.3506 | 870.527 | 866.989 | 1341.3 | 1324.1 | 1307.1
x1 = 0.4003 | 876.48 | 872.967 | 1347.5 | 1330.3 | 1313.3
x1 = 0.4485 | 881.984 | 878.492 | 1353.3 | 1336.2 | 1319.2
x1 = 0.4981 | 887.228 | 883.761 | 1359.2 | 1342.1 | 1325.1
x1 = 0.549 | 892.419 | 888.971 | 1365.4 | 1348.2 | 1331.3
x1 = 0.5979 | 897.108 | 893.686 | 1371.3 | 1354.1 | 1337.1
x1 = 0.6483 | 901.8 | 898.401 | 1377.6 | 1360.3 | 1343.3
x1 = 0.6971 | 906.089 | 902.72 | 1383.8 | 1366.4 | 1349.3
x1 = 0.7444 | 910.065 | 906.721 | 1389.8 | 1372.2 | 1355
x1 = 0.7997 | 914.585 | 911.263 | 1397.4 | 1379.5 | 1362
x1 = 0.8466 | 918.226 | 914.903 | 1404.4 | 1386 | 1368.2
x1 = 0.901 | 922.256 | 918.92 | 1413 | 1394 | 1375.7
x1 = 0.9495 | 925.7 | 922.407 | 1421.1 | 1401.3 | 1382.5
x1 = 1 | 928.794 | 925.509 | 1431.5 | 1410.3 | 1390.4
